Key:
LC3 = experiment: Promega Autophagy Assay System (HiBiT-tagged LC3 reporter, autophagy flux); assay type: cell-based; conditions: LC3 reporter signal; decrease = increased autophagy
From the text: The Promega Augophagy Assay System uses LC3 to monitor the autophagy process. […] LgBiT is a […] recombinant protein derived from NanoLuc. When HiBiT associates with LgBiT, a strong luciferase activity is reconstituted. An increase in autophagy will accelerate the degradation of LC3 reporter which decreases the assay signal. In contrast, inhibition of autophagy causes the accumulation of LC3 which will increase the reporter levels and assay signal.

Aβ42 = experiment: Dot blot assay of Aβ42 in brain of 5XFAD mice; assay type: in vivo, mouse; conditions: 5XFAD Becn1 F121A mice, 2 mg/kg i.p. once per day for 7 days
Description: Total protein loading was labeled by Ponceau S. N=5. **, P<0.01, t test.
Total protein loading was labeled by Ponceau S. Triplicate experiments from 4-5 mice in each group were shown. Results represent mean±s.e.m. NS, not significant; *, P<0.05; **, P<0.01; ***, P<0.001, t test.
Total protein loading was labeled by Ponceau S. Triplicate experiments from 4 mice in each group were shown.
Dot blot assay. Snap frozen hemi-brain were homogenized in 800 μl phosphate-buffered saline (PBS; Sigma-Aldrich, D8537) with 1% Triton X-100 supplemented with halt proteinase inhibitor cocktail (ThermoFisher Scientific), and halt phosphatase inhibitor cocktail (ThermoFisher Scientific). Protein concentration was quantified using BCA Assay (Pierce). For Af342 dot blots, 10 mg/ml brain homogenates were extracted in guanidine buffer (5 M guanidine-HCl [GuHCl], 50 mM Tris HCl pH 8.0) overnight at room temperature. One μl of sample was spotted in triplicate on 0.2 μm nitrocellulose membrane, and dried for 1 h at 37° C. The membrane was stained with Ponceau S, and the dot blot signal on the membrane was detected by immunostaining with Aβ42 antibody (Invitrogen, 700254, 1:1000) and HRP-conjugated secondary antibody (Santa Cruz Biotechnology, sc2004, 1:2000). Aβ42 signals were normalized to the Ponceau S staining. To separate soluble and insoluble Aβ fractions, 10 mg/ml of the total homogenated brains were centrifuged at 14000 rpm, 4° C. for 30 min. The supernatant (soluble fraction) was used directly for dot blot assays. The pellet (insoluble fraction) was extracted in guanidine buffer overnight at room temperature, and used in dot blot analyses. […] One μl of each sample was spotted on nitrocellulose membrane for dot blot analysis.

WT mice = experiment: Analgesic tolerance test during chronic WIN treatment; assay type: in vivo, mouse; conditions: after 14 d of repeated WIN dosage (day 14)
Description: Briefly, mice were injected with WIN for 14 d, and analgesic tolerance was measured without WIN treatment on day 0, and after 1-h WIN treatment on day 1 and day 14.
There were no genotype differences either in basal pain sensitivity to infrared heat-generated pain (agonist-free, day 0) (FIG. 2C), or in analgesic effects of acute WIN treatment prior to chronic WIN administration (day 1) (FIG. 2D).

CB1R signaling = CB1R signaling in brain (phosphorylation of MEK and JNK) after chronic WIN; assay type: in vivo, mouse; conditions: repeated WIN treatment 14 d
Description: WT mice were treated with either daily WIN or vehicle for 14 d, and then subject to an acute dosage of WIN 1 h prior to collection of brain samples.
To investigate whether restoration of CB1R signaling underlies the behavioral regulation by autophagy activation, the level and functionality of CB1R in mouse brain after co-administration of chronic cannabinoids and autophagy inducers were analyzed. […] To determine whether the increased level of CB1R represents CB1R re-sensitization in the brain, the agonist-induced phosphorylation of signaling kinases downstream of CB1R after chronic WIN exposure were analyzed.

[1] = Body weight during chronic WIN treatment; assay type: in vivo, mouse; conditions: mice of all genotypes during chronic WIN treatment
From the text: N=9-13 mice/group. Results represent mean±s.e.m.

Structure (SMILES)	AC50 (LC3) [µM]	other results
COC(Cn1cnc2c(c(-c3ccccc3)c(-c3ccccc3)n2Cc2ccccc2)c1=N)OC	0.231	
N=c1c2c(-c3ccccc3)c(-c3ccccc3)n(CC3CCCCC3)c2ncn1C[C@H]1CCCC[C@@H]1O	0.366	
N=c1c2c(-c3ccccc3)c(-c3ccccc3)n(CCc3ccccc3)c2ncn1[C@H]1CC[C@H](O)CC1	1.16	
COc1ccc(Cn2c(-c3ccccc3)c(-c3ccccc3)c3c(=N)n([C@H]4CC[C@H](O)CC4)cnc32)cc1	1.64	
N=c1c2c(-c3ccccc3)c(-c3ccccc3)n(Cc3ccccc3)c2ncn1CCC1CCC(O)CC1 (centres unmarked)	1.84	
N=c1c2c(-c3ccccc3)c(-c3ccccc3)n(Cc3ccccc3)c2ncn1C1CCOCC1	2.31	
COc1ccc(Cn2c(-c3ccccc3)c(-c3ccccc3)c3c(=N)n(CCO)cnc32)cc1	2.59	
COc1ccc(Cn2c(-c3ccccc3)c(-c3ccccc3)c3c(=N)n(C4CCOCC4)cnc32)cc1	2.59	
N=c1c2c(-c3ccccc3)c(-c3ccccc3)n(Cc3ccc(OC(F)(F)F)cc3)c2ncn1[C@H]1CC[C@H](O)CC1	2.59	
N=c1c2c(-c3ccccc3)c(-c3ccccc3)n(Cc3ccccc3)c2ncn1C1CCC(O)CC1 (centres unmarked)	2.91	
CO[C@H]1CC[C@H](n2cnc3c(c(-c4ccccc4)c(-c4ccccc4)n3Cc3ccccc3)c2=N)CC1	2.91	
COC1CCC(n2cnc3c(c(-c4ccccc4)c(-c4ccccc4)n3Cc3ccc(OC(F)(F)F)cc3)c2=N)CC1 (centres unmarked)	2.91	
N=c1c2c(-c3ccccc3)c(-c3ccccc3)n(Cc3ccccc3)c2ncn1[C@@H]1CCCC[C@H]1O	3.26	
N=c1c2c(-c3ccccc3)c(-c3ccccc3)n(CCc3ccccc3)c2ncn1CCC1CCC(O)CC1 (centres unmarked)	3.66	
CO[C@H]1CC[C@H](n2cnc3c(c(-c4ccccc4)c(-c4ccccc4)n3CCc3ccccc3)c2=N)CC1	3.66	
N=c1c2c(-c3ccccc3)c(-c3ccccc3)n(CCc3ccccc3)c2ncn1CCO	4.61	
N=c1c2c(-c3ccccc3)c(-c3ccccc3)n(CCc3ccccc3)c2ncn1CCCO	4.61	
CN(C)CCn1cnc2c(c(-c3ccccc3)c(-c3ccccc3)n2CCc2ccccc2)c1=N	5.17	
COc1ccc(Cn2c(-c3ccccc3)c(-c3ccccc3)c3c(=N)n(CCCCCO)cnc32)cc1	5.17	
COc1ccc(Cn2c(-c3ccccc3)c(-c3ccccc3)c3c(=N)n(CCCO)cnc32)cc1	5.17	
N=c1c2c(-c3ccccc3)c(-c3ccccc3)n(Cc3ccccc3)c2ncn1CCO	5.8	
N=c1c2c(-c3ccccc3)c(-c3ccccc3)n(CC3CC3)c2ncn1C1CCOCC1	7.31	
N=c1c2c(-c3ccccc3)c(-c3ccccc3)n(CCc3ccccc3)c2ncn1[C@@H]1CCCC[C@H]1O	7.31	
N=c1c2c3c(n(CCc4ccccc4)c2ncn1C1CCOCC1)CCCC3	7.31	
N=c1c2c(-c3ccccc3)c(-c3ccccc3)n(Cc3ccccc3)c2ncn1CC1COC1	8.2	
COc1ccc(Cn2c(-c3ccccc3)c(-c3ccccc3)c3c(=N)n(CC4CCOCC4)cnc32)cc1	9.2	
N=c1c2c(-c3ccccc3)c(-c3ccccc3)n(Cc3ccccc3)c2ncn1[C@H]1CC[C@H](CO)CC1	9.2	
CN(C)CCCn1cnc2c(c(-c3ccccc3)c(-c3ccccc3)n2CCc2ccccc2)c1=N	32.6	
CNC(=O)c1ccccc1Oc1nc(Nc2cc(OC)c(OC)c(OC)c2)ncc1Br [SBI-0206965, reference compound]		Becn1 F121A-induced reduction in brain Aβ42 levels (Aβ42): abolished the reduction
Cc1c(C(=O)c2cccc3ccccc23)c2cccc3c2n1[C@H](CN1CCOCC1)CO3 [WIN, reference compound]		analgesic effect of WIN (WT mice): markedly decreased; activation of CB1R (CNR1) signaling induced by agonists (CB1R signaling): decreased activation; body weight [1]: remained constant
